The target of the assay is T1, 5-HT7 receptor (Homo sapiens, UniProt P34969).
T1 construct: expressed in transfected cells
Briefly: Functional antagonist assay: measurement of cAMP formation. In kind it is cell-based. The note with it: 5-HT7-expressing AV-12 cells. As to the method: For cAMP functional assays, the 5-HT7-expressing cells from above are grown in 150 cm^2 flasks and processed essentially as follows. The media is aspirated from the flasks and cells are washed with 1 mL PBS. The cells are released from monolayer with enzyme free cell dissociation solution (Specialtymedia CAT#S-004-B, www.Chemicon.com) and resuspended in complete media. A sample of the cells is counted and the remainder is centrifuged as above for 3 min. The resulting cell pellet is resuspended in PBS at a concentration of 1×10^6 cells per mL and used directly in the cAMP assay as described.
The 5-HT7 receptor is functionally coupled to a G-protein as measured by the ability of serotonin and serotonergic drugs to stimulate cAMP production in CHO cells transfected with the 5-HT7 receptor. (Ruat, et al., Proceedings of the National Academy of Sciences (USA), 90:8547-8551, 1993.) Accordingly, functional receptor activity can be measured by measuring adenylate cyclase activity using a commercially available cell-based, homogeneous, time resolved fluorescence assay kit, as for example the kit produced by Cisbio-US, Inc. (Bedford, Mass.). Essentially, and using the protocol and reagents provided by the manufacturer, approximately 20,000 human 5-HT7 receptor-expressing AV-12 cells (as described above) are used with test compound dose concentrations in the range described for the binding assay. […] A cAMP standard curve is also run in every experiment. After the assay plates are read in an Envision™ instrument (Perkin-Elmer, Wellesley Mass.), the data are normalized to the standard curve and converted to percent inhibition for data analysis as described above for the receptor binding assay results. The Kb (nM) is calculated as a measure of the antagonist potency of the compound. Preferred compounds are those having percent inhibition>75%. Still other preferred compounds are those having Kb<50 nM.
A general note: Cyclic AMP is a second messenger, typically raised through Gs and lowered through Gi signalling.

Consider one compound from US8048884B2, “Substituted piperazinyl pyrazines and pyridines as 5-HT7 receptor antagonists” (Eli Lilly and Company, priority 2007, dated 2011).

T1 sequence (P34969 whole entry): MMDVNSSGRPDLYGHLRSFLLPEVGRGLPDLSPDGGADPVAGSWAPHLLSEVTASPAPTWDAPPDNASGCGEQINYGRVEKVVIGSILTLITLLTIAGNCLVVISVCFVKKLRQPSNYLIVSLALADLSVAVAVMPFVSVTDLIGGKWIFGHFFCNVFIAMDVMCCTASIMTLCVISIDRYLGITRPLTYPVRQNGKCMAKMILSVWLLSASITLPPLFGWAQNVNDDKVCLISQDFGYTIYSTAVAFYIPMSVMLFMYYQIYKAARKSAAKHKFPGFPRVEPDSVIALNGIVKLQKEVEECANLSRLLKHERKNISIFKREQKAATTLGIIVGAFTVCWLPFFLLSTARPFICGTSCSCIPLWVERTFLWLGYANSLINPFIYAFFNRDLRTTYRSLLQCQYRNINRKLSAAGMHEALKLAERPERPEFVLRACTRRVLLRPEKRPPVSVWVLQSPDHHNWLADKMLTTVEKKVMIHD

The term Kb denotes the affinity of an antagonist, worked out from how it opposes an agonist. A high value points to a less potent antagonist. For `COCc1ccc(-c2nccnc2N2CCN(CCN(C)S(=O)(=O)c3cnn(C)c3)CC2)cc1.Cl` [Example 25, 1-Methyl-1H-pyrazole-4-sulfonic acid {2-[3′-(4-methoxymethyl-phenyl)-2,3,5,6-tetrahydro-[1,2′]bipyrazinyl-4-yl]-ethyl}-methyl-amide hydrochloride], the antagonist character entry is “full antagonists”. In addition, the Kb (antagonist potency) is roughly 8.5 nM.
